Results from ChEMBL document CHEMBL1201862, “PubChem BioAssay data set” (2004).
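Test compounds were applied to cells in 96-well plates for 48 hours at 5 doses. GI50 marks 50% less growth.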 Calls of active or inactive are those of the source. No stated cut-off is given here; in the data, active = GI50 up to about 1.1 µM and inactive = higher.

Experiments:
Test in all cases: growth of human tumour cells (NCI), 48 h
[1] = test system: 786-0
[2] = test system: CCRF-CEM
[3] = test system: EKVX
[4] = test system: HCC 2998
[5] = test system: HCT-116
[6] = test system: HOP-92
[7] = test system: IGROV-1
[8] = test system: K562
[9] = test system: LOX IMVI
[10] = test system: MCF7
[11] = test system: MDA-MB-231
[12] = test system: NCI-H460
[13] = test system: NCI/ADR-RES
[14] = test system: OVCAR-3
[15] = test system: OVCAR-5
[16] = test system: RPMI-8226
[17] = test system: RXF 393
[18] = test system: SK-MEL-28
[19] = test system: SNB-19
[20] = test system: MDA-N

Row | SMILES | GI50 [1] | GI50 [2] | GI50 [3] | GI50 [4] | GI50 [5] | GI50 [6] | GI50 [7] | GI50 [8] | GI50 [9] | GI50 [10] | GI50 [11] | GI50 [12] | GI50 [13] | GI50 [14] | GI50 [15] | GI50 [16] | GI50 [17] | GI50 [18] | GI50 [19] | GI50 [20]
1 | COC1=C(C)C(=O)C2=C(C1=O)C1C3CC4=C(C(=O)C(OC)=C(C)C4=O)C(CNC(=O)C(C)=O)N3C(C#N)C(C2)N1C (centres undefined) | 0.00383 µM (active) | 0.00839 µM (active) | 0.104 µM (active) | 0.00629 µM (active) | 0.00711 µM (active) | 0.00442 µM (active) | 0.00424 µM (active) | 0.00153 µM (active) | 0.00129 µM (active) | 0.01 µM (active) | 0.00283 µM (active) | 0.0101 µM (active) | 0.296 µM (active) | 0.00419 µM (active) | 0.0172 µM (active) | 0.0014 µM (active) | 0.00496 µM (active) | 0.00511 µM (active) | 0.00804 µM (active) | –
2 | CCCCC1=CC1(C#N)[N+](=O)[O-] (centres undefined) | 72.4 µM (inactive) | 18.1 µM (inactive) | > 100 µM (inactive) | > 100 µM (inactive) | 33.1 µM (inactive) | 48.9 µM (inactive) | > 100 µM (inactive) | 22.3 µM (inactive) | 31.3 µM (inactive) | 45.4 µM (inactive) | > 100 µM (inactive) | > 100 µM (inactive) | > 100 µM (inactive) | > 100 µM (inactive) | > 100 µM (inactive) | 25.1 µM (inactive) | > 100 µM (inactive) | > 100 µM (inactive) | > 100 µM (inactive) | –
3 | COC1CC(OC2CCC3(C)C(=CCC4C3C(OC(C)=O)C(OC(=O)CC(C)C)C3(C)C(C(C)=O)CCC43O)C2)OC(C)C1OC1CC(OC)C(OC2CC(OC)C(OC3OC(C)C(O)C(OC)C3O)C(C)O2)C(C)O1 (centres undefined) | 24.9 µM (inactive) | 22.6 µM (inactive) | 34.8 µM (inactive) | 24.4 µM (inactive) | 26.7 µM (inactive) | 22.5 µM (inactive) | 32.4 µM (inactive) | 36.6 µM (inactive) | 20.2 µM (inactive) | 21.9 µM (inactive) | 26.5 µM (inactive) | 28.7 µM (inactive) | – | 43.9 µM (inactive) | 86.7 µM (inactive) | 17.7 µM (inactive) | 20.1 µM (inactive) | 36 µM (inactive) | 86.5 µM (inactive) | 32.1 µM (inactive)
4 | CC(=O)NC1C(OCc2ccccc2)OC(CO)C(O)C1OCC(=O)N[C@@H](C)C(=O)N[C@H](CCC(=O)NCCCNc1ccc([N+](=O)[O-])c2[nH]c3ccccc3c(=O)c12)C(N)=O (some centres undefined) | 34.2 µM (inactive) | > 100 µM (inactive) | 43 µM (inactive) | 49.3 µM (inactive) | 45.4 µM (inactive) | > 100 µM (inactive) | 23.4 µM (inactive) | > 100 µM (inactive) | 52.6 µM (inactive) | – | > 100 µM (inactive) | 46.1 µM (inactive) | > 100 µM (inactive) | > 100 µM (inactive) | > 100 µM (inactive) | > 100 µM (inactive) | 63.5 µM (inactive) | > 100 µM (inactive) | 37.4 µM (inactive) | > 100 µM (inactive)
5 | O=C(O)c1ccccc1/C=C1\Cc2ccc3c(c2C1=O)CCCC3 | 98.9 µM (inactive) | 30.4 µM (inactive) | 43.3 µM (inactive) | 31.3 µM (inactive) | 30.1 µM (inactive) | 14.3 µM (inactive) | 31 µM (inactive) | 38 µM (inactive) | 40 µM (inactive) | 48.3 µM (inactive) | 21.4 µM (inactive) | 32 µM (inactive) | 32.1 µM (inactive) | 31 µM (inactive) | 73.1 µM (inactive) | 26.9 µM (inactive) | 30.5 µM (inactive) | 39.2 µM (inactive) | 39.4 µM (inactive) | –
6 | CC(=O)CC1=C(OC(C)C)C2(OCCO2)C1O (centres undefined) | > 100 µM (inactive) | > 100 µM (inactive) | > 100 µM (inactive) | – | > 100 µM (inactive) | > 100 µM (inactive) | > 100 µM (inactive) | – | > 100 µM (inactive) | > 100 µM (inactive) | > 100 µM (inactive) | > 100 µM (inactive) | – | > 100 µM (inactive) | > 100 µM (inactive) | – | > 100 µM (inactive) | > 100 µM (inactive) | > 100 µM (inactive) | > 100 µM (inactive)
7 | NC(Cc1ccccc1)c1nccs1 (centres undefined) | > 100 µM (inactive) | > 100 µM (inactive) | > 100 µM (inactive) | > 100 µM (inactive) | > 100 µM (inactive) | > 100 µM (inactive) | > 100 µM (inactive) | > 100 µM (inactive) | > 100 µM (inactive) | > 100 µM (inactive) | > 100 µM (inactive) | – | > 100 µM (inactive) | > 100 µM (inactive) | > 100 µM (inactive) | > 100 µM (inactive) | – | > 100 µM (inactive) | > 100 µM (inactive) | > 100 µM (inactive)
